Experimental data taken from PMC11530130, “Peripherally restricted PICK1 inhibitor mPD5 ameliorates pain behaviors in murine inflammatory and neuropathic pain models” (JCI Insight, 2024).
“And” between values parts separate entries of the source, which are not always exact repeats. Equal values may be shown once.

System: mice, CFA model of inflammatory pain
Assay: CFA model of inflammatory pain, von Frey, s.c. administration
Type: in vivo, mouse
Conditions: for paw withdrawal threshold (von Frey), individual mice / von Frey paw withdrawal threshold, ipsilateral paw (Fig S7A) / von Frey paw withdrawal threshold, contralateral paw (Fig S7A): listed as myr; for von Frey paw withdrawal threshold, ipsilateral paw (Fig S7A) / von Frey paw withdrawal threshold, contralateral paw (Fig S7A): CFA mice, individual animals; for von Frey paw withdrawal threshold, ipsilateral paw (Fig S7A): group 10; for von Frey paw withdrawal threshold, contralateral paw (Fig S7A): group 10_contra; for effect on mechanical hypersensitivity (PWT): CFA, male mice
Experimental: Unless otherwise specified, wild type C57BL/6NRj mice (male and female, aged eight-weeks at the beginning of experiment) were used (Janvier, France). Animals were allowed at least seven days of habituation to the animal facility before initiation of experiment. Mice were group-housed in a temperature-controlled room, maintained on a 12/12hour light/dark cycle (lights on at 6 A.M) with free access to standard rodent chow (Altromin 1342 (Brogaarden, […]
Drug administration and dosing for animal experiments.
All compounds were diluted in PBS or saline (depending on control) and administered through different routes i.t. (7 μL/mouse)), i.p. (10 μL/g) or s.c. (10 μL/g)) as indicated. Doses of mPD5 were based on previous studies with TPD5 (6) with a subcutaneous dose-range included in the CFA studies further guiding dose selection for SNI, STZ and CIBP studies. Pregabalin dose was chosen based on previous experience from Phenotype Expertise (Marseilles, France). In the CIBP model, a dose of […] morphine was chosen to avoid hyperactivity, though known to provide only partial pain relief in this model. In remaining experiments, 5 mg/kg morphine was chosen, known to provide full pain relief, except for the conditioned place preference experiment, where 10 mg/kg was used instead in accordance with literature. […]
µL of IS1 (internal standard in MeOH (Labetalol & tolbutamide & Verapamil & dexamethasone & glyburide & Celecoxib 100 ng/mL for each)) and the mixture was vortexed for 10 min at 800 rpm and centrifuged for 15 min at 3220 × g at 4 ℃. An aliquot of 65 µL supernatant was transferred to a clean 96-well plate and centrifuged for 5 min at 3220 × g at 4 ℃, then the supernatant was directly injected for LC-MS/MS analysis. Plasma half-lives were determined from three points in the elimination phase. In a separate experiment, biodistribution was assessed (plasma, CSF, spinal cord, whole brain) at two hours after single dose of 10 µmol/kg or one hour after last injection in the repeated administration paradigm (10 µmol/kg followed by four s.c. administrations of 2 µmol/kg with one hour between). At these times, plasma levels were similar between the two paradigms. Plasma, CSF, and tissue samples (kept at 4 ℃) were processed and analysed as described above.
Concentration 10 µmol/kg: Wild type mice were habituated to the experimental room for a minimum of 60 min before initiation of the experiment. Female and male mice were run on separate days. Mice were injected s.c. with 10 μmol/kg mPD5 or sterile PBS directly before being placed in open field boxes (40 cm x 40 cm x 80 cm) for 2.5 hours with up to four mice in boxes at any one time. A video camera placed above the open field recorded the animals’ behaviour and Ethovision XT 13 (Noldus) was used to track the distance travelled by the […]
Concentration 30 + 50 µmol/kg: Animals were habituated to the experimental room for a minimum of 60 min before initiation of the experiment. At initiation of experiment, the mice (all male) were injected subcutaneously (s.c.) with mPD5 (30 or 50 μmol/kg, pH adjusted to approximately 7 with 5 M NaOH) or 0.9 % saline (B.Braun, Germany) and left in their home cage for 60 min. After exactly one hour, the mice were placed in an open field (40 cm x 40 cm x 80 cm) for 60 min. A video camera placed above the open field recorded the animals’ […]
animal. The experiment was run in cohort with Figure 2B+C of (9)).
Induction of inflammatory pain (CFA model).
Injury was induced on the right hind paw, whereas the contralateral left hind paw was used as internal control of the C57BL/6J male and female mice (Janvier, France). The inflammatory pain was induced by injection of 50 μL undiluted Complete Freund’s Adjuvant (CFA) (F5881, Sigma) unilaterally into the intraplantar surface of the right hind paw, whereas control mice were injected with the same amount of 0.9 % saline (B. Braun, Germany). All intraplantar injections were performed with an insulin needle (0.3 mL BD Micro-Fine) while the animal […]

[1] = 1 hr post myr injection on day 2
[2] = 5 hrs post myr injection on day 2
[3] = 25 hrs post myr injection on day 2
[4] = day 2 after CFA injection (before dosing)

CCCCCCCCCCCCCC(=O)N(CCOCCOCCC(=O)N[C@@H](Cc1c[nH]cn1)C(=O)N[C@@H](Cc1c[nH]c2ccccc12)C(=O)N[C@@H](CC(C)C)C(=O)N[C@@H](CCCCN)C(=O)N[C@H](C(=O)O)C(C)C)CCOCCOCCC(=O)N[C@@H](Cc1c[nH]cn1)C(=O)N[C@@H](Cc1c[nH]c2ccccc12)C(=O)N[C@@H](CC(C)C)C(=O)N[C@@H](CCCCN)C(=O)N[C@H](C(=O)O)C(C)C [mPD5, myristoyl-NPEG4-(HWLKV)2]
paw withdrawal threshold (von Frey), individual mice (CFA day 2, s.c. 50 μmol/kg, contralateral paw, 1 hr post injection): 1 (3×) and 2 (3×) | paw withdrawal threshold (von Frey), individual mice (CFA day 2, s.c. 50 μmol/kg, contralateral paw, 5 hrs post injection): 1 (3×) and 1.4 (3×) | paw withdrawal threshold (von Frey), individual mice (CFA day 2, s.c. 50 μmol/kg, contralateral paw, 24 hrs post injection): 1.4 (2×) and 2 (3×) and 1 | paw withdrawal threshold (von Frey), individual mice (CFA day 2, s.c. 50 μmol/kg, contralateral paw, 262 hrs post injection): 1 and 2 (2×) and 1.4 (3×) | paw withdrawal threshold (von Frey), individual mice (CFA day 2, s.c. 50 μmol/kg, ipsilateral paw, 1 hr post injection): 0.4 and 1.4 and 2 (2×) and 1 (2×) | paw withdrawal threshold (von Frey), individual mice (CFA day 2, s.c. 50 μmol/kg, ipsilateral paw, 5 hrs post injection): 0.6 and 0.4 (2×) and 1 and 0.16 (2×) | paw withdrawal threshold (von Frey), individual mice (CFA day 2, s.c. 50 μmol/kg, ipsilateral paw, 24 hrs post injection): 0.07 and 0.16 (2×) and 0.4 (3×) | paw withdrawal threshold (von Frey), individual mice (CFA day 2, s.c. 50 μmol/kg, ipsilateral paw, 262 hrs post injection): 1 (2×) and 1.4 (3×) and 0.6 | paw withdrawal threshold (von Frey), individual mice (CFA dose range, s.c. 2 μmol/kg, contralateral paw, 1 hr post injection): 2 (4×) and 1.4 | paw withdrawal threshold (von Frey), individual mice (CFA dose range, s.c. 2 μmol/kg, ipsilateral paw, 1 hr post injection): 0.6 and 0.16 and 1 and 1.4 and 0.4 | paw withdrawal threshold (von Frey), individual mice (CFA dose range, s.c. 2 μmol/kg, ipsilateral paw, 5 hrs post injection): 0.4 and 0.16 (3×) and 0.6 | paw withdrawal threshold (von Frey), individual mice (CFA dose range, s.c. 10 μmol/kg, contralateral paw, 1 hr post injection): 1.4 (4×) and 2 (2×) | paw withdrawal threshold (von Frey), individual mice (CFA dose range, s.c. 10 μmol/kg, contralateral paw, 5 hrs post injection): 1 (2×) and 1.4 | paw withdrawal threshold (von Frey), individual mice (CFA dose range, s.c. 10 μmol/kg, ipsilateral paw, 1 hr post injection): 0.4 and 0.6 (2×) and 1.4 and 0.16 and 1 | paw withdrawal threshold (von Frey), individual mice (CFA dose range, s.c. 10 μmol/kg, ipsilateral paw, 5 hrs post injection): 0.16 and 0.6 (2×) and 1.4 | paw withdrawal threshold (von Frey), individual mice (CFA dose range, s.c. 50 μmol/kg, contralateral paw, 1 hr post injection): 1.4 (4×) and 2 | paw withdrawal threshold (von Frey), individual mice (CFA dose range, s.c. 50 μmol/kg, contralateral paw, 5 hrs post injection): 2 (3×) and 1.4 (2×) | paw withdrawal threshold (von Frey), individual mice (CFA dose range, s.c. 50 μmol/kg, ipsilateral paw, 1 hr post injection): 1.4 (3×) and 0.6 (2×) | paw withdrawal threshold (von Frey), individual mice (CFA dose range, s.c. 50 μmol/kg, ipsilateral paw, 5 hrs post injection): 0.6 and 1 (2×) | von Frey paw withdrawal threshold, ipsilateral paw (Fig S7A) [1]: 0.6 (2×) and 1 (3×) and 0.4 | von Frey paw withdrawal threshold, ipsilateral paw (Fig S7A) [2]: 0.16 (2×) and 0.07 (2×) and 0.4 and 0.6 | von Frey paw withdrawal threshold, ipsilateral paw (Fig S7A) [3]: 0.07 (4×) and 0.16 (2×) | von Frey paw withdrawal threshold, ipsilateral paw (Fig S7A) (baseline before CFA injection): 1 and 1.4 (5×) | von Frey paw withdrawal threshold, ipsilateral paw (Fig S7A) [4]: 0.07 (4×) and 0.16 (2×) | von Frey paw withdrawal threshold, contralateral paw (Fig S7A) [1]: 1 (4×) and 1.4 and 0.6 | von Frey paw withdrawal threshold, contralateral paw (Fig S7A) [2]: 1 (4×) and 0.6 and 1.4 | von Frey paw withdrawal threshold, contralateral paw (Fig S7A) [3]: 0.6 (2×) and 1 (4×) | von Frey paw withdrawal threshold, contralateral paw (Fig S7A) (baseline before CFA injection): 1.4 (5×) and 1 | von Frey paw withdrawal threshold, contralateral paw (Fig S7A) [4]: 1 (3×) and 0.6 (2×) and 1.4 | effect on mechanical hypersensitivity (PWT) (s.c. 50 μmol/kg, 5 hours after injection): significant reduction of mechanical hypersensitivity | effect on mechanical hypersensitivity (PWT) (s.c. 2, 10 and 50 μmol/kg (all doses), 1 hour after administration): significant reversion of mechanical hypersensitivity | effect on mechanical hypersensitivity (PWT) (single s.c. 50 μmol/kg, 1 hour after injection): reverted hypersensitivity | reversion of CFA-induced mechanical hypersensitivity in female mice (female mice, s.c. 10 μmol/kg): confirmed
